Counter-ions that a name gives are not always drawn.
Tested on: ANGPTL3
Experiment: RNA-seq of ANGPTL3 expression in compound-treated primary human hepatocytes
Format: cell-based
Conditions: additional compounds (Table 13), linear fold change
Method: Human hepatocytes were obtained from two donors from Massachusetts General Hospital, namely MGH54 and MGH63, and one donor from Lonza, namely HUM4111B. Cryopreserved hepatocytes were cultured in plating media for 16 hours, transferred to maintenance media for 4 hours. Cultured on serum-free media for 2 hours, then a compound was added. The hepatocytes were maintained on the serum-free media for 16 hours prior to gene expression analysis. Primary human hepatocytes were stored in the vapor phase of a liquid nitrogen freezer (about −130° C.).
Human hepatocytes cultured as described above were plated in 24-well format, adding 375,000 cells per well in a volume of 500 ul plating medium. Four hours before treatment, cells were washed with PBS and the medium was changed to either: fresh maintenance medium (complete) or modified maintenance medium.
Compound stocks were prepared at 1000× final concentration and added in a 2-step dilution to the medium to reduce risk of a compound precipitating out of solution when added to the cells, and to ensure reasonable pipetting volumes. One at a time, each compound was first diluted 10-fold in warm (about 37° C.) modified maintenance medium (initial dilution=ID), mixed by vortexing, and the ID was diluted 100-fold into the cell culture (e.g. 5.1 ul into 1 well of a 24-well plate containing 0.5 mL medium). The plate was mixed by carefully swirling and after all wells were treated and returned to the incubator overnight. If desired, separate plates/wells were treated with vehicle-only controls and/or positive controls. If using multi-well plates, controls were included on each plate. After about 18 hours, cells were harvested for further analysis, e.g., ChIP-seq, RNA-seq, ATAC-seq, etc.
This protocol is a modified version of the following protocols: MagMAX mirVana Total RNA Isolation Kit User Guide (Applied Biosystems #MAN0011131 Rev B.0), NEBNext Poly(A) mRNA Magnetic Isolation Module (E7490), and NEBNext Ultra Directional RNA Library Prep Kit for Illumina (E7420) (New England Biosystems #E74901).
The MagMAX mirVana kit instructions (the section titled “Isolate RNA from cells” on pages 14-17) were used for isolation of total RNA from cells in culture. Two hundred μl of Lysis Binding Mix was used per well of the multiwell plate containing adherent cells (usually a 24-well plate).
For mRNA isolation and library prep, the NEBNext Poly(A) mRNA Magnetic Isolation Module and Directional Prep kit was used. RNA isolated from cells above was quantified, and prepared in […] of each sample in 50 μl of nuclease-free water. This protocol may be run in microfuge tubes or in a 96-well plate.
All pass filter reads from each sample were mapped against the human genome (assembly GRCh38/GCA_000001405.15 “no alt” analysis set merged with hs38d1/GCA_000786075.2) using two pass mapping via STAR version 2.5.3a (alignment parameters alignIntronMin=20; alignIntronMax=1000000; outFilterMismatchNmax=999; outFilterMismatchNoverLmax=0.05; outFilterType=BySJout; outFilterMultimapNmax=20; alignSJoverhangMin=8; alignSJDBoverhangMin=1; alignMatesGapMax=1000000) (Dobin et al., Bioinformatics (2012) 29(1):15-21). Genomic alignments were converted to transcriptome alignments based on reference transcript annotations from the Human GENCODE Gene Set release 24 (Harrow et al., Genome Res. (2012) 22(9): 1760-1774). Using unique and multimapped transcriptomic alignments, gene-level abundance estimates were computed using RSEM version 1.3.0 (Li and Dewey, BMC Bioinformatics (2011) 12:323) in a strand-aware manner, and including confidence interval sampling calculations, to arrive at posterior mean estimates (PME) of abundances (counts and normalized FPKM—fragments per kilobase of exon per million mapped fragments) from the underlying Bayesian model. Standard QC were applied (read integrity, mapping statistics, library complexity, fragment bias) to remove unsatisfactory samples.

Structure (SMILES) | ANGPTL3-LINEAR FOLD CHANGE
CNC(=O)c1ccc(C)c(-n2c(C)cc(OCc3ccc(F)cc3F)c(Br)c2=O)c1 [PH-797804] | 0.2736
O=C(O)Cc1cccc(OCCCN(Cc2cccc(C(F)(F)F)c2Cl)CC(c2ccccc2)c2ccccc2)c1 [GW3965] | 2.071
COc1cc2c(Oc3ccc(NC(=O)C4(C(=O)Nc5ccc(F)cc5)CC4)cc3F)ccnc2cc1OCCCN1CCOCC1 [Foretinib (GSK1363089), Foretinib] | 0.3368
CC/C(=C(\c1ccccc1)c1ccc(OCCN(C)C)cc1)c1ccccc1 [Tamoxifen] | 0.2606
Cc1cc(C)c(/C=C2\C(=O)Nc3ccccc32)[nH]1 [Semaxinib, Semaxanib] | 0.2449
O=C1CCc2c(Oc3ccc4c(c3)[C@@H]3[C@H](O4)[C@H]3c3nc4ccc(C(F)(F)F)cc4[nH]3)ccnc2N1 [Lifirafenib (BGB-283), Lifirafenib] | 0.3585
NC(=O)N[C@@H](CCC(=O)O)C(=O)O [Carglumic Acid] | 0.1975
COCCOCOc1cc2ccc(-c3ccc(C(=O)O)cc3)cc2cc1C12CC3CC(CC(C3)C1)C2 [CD 2665] | 0.395
NCCC(O)(P(=O)(O)O)P(=O)(O)O [Pamidronate] | 0.1528
Cc1c(C(=O)Nc2ccc(N3C[C@@H](C)O[C@@H](C)C3)nc2)cccc1-c1ccc(OC(F)(F)F)cc1 [Sonidegib (Erismodegib, NVP-LDE225), Sonidegib] | 0.4897
COCCn1c2c([n+](Cc3cnccn3)c1C)C(=O)c1ccccc1C2=O [YM155 (Sepantronium Bromide), Sepantronium Bromide] | 0.3487
CCn1c(=O)c(-c2cc[nH]n2)cc2c(C)nc(N)nc21 [Voxtalisib (XL765, SAR245409), Voxtalisib] | 0.4175
Cc1cnc(Nc2ccc(OCCN3CCCC3)cc2)nc1Nc1cccc(S(=O)(=O)NC(C)(C)C)c1 [Fedratinib (SAR302503, TG101348), Fedratinib] | 0.1119
O=C(c1ccc(F)c(F)c1Nc1ccc(I)cc1F)N1CC(O)([C@@H]2CCCCN2)C1 [Cobimetinib (GDC-0973, RG7420), Cobimetinib] | 0.2333
CNc1nc(-c2ccc3c(N)n[nH]c3c2)cc(N2C[C@@H](C(=O)NC3CCCCC3)CC[C@H]2C)n1 [GSK2334470] | 0.4538
C[C@@H]1CN(Cc2ccc(F)cc2)[C@@H](C)CN1C(=O)c1cc2c(C(=O)C(=O)N(C)C)cn(C)c2cc1Cl [SCIO-469] | 0.3711
O=C(CCCCCCC(=O)Nc1ccccc1)NO [Vorinostat (SAHA, MK0683), Vorinostat] | 0.3511
COc1cc(C(=O)NS(=O)(=O)c2ccccc2C)ccc1Cc1cn(C)c2ccc(NC(=O)OC3CCCC3)cc12 [Zafirlukast] | 0.4506
COc1cc(N2CCC(N3CCN(C)CC3)CC2)ccc1Nc1ncnc(Nc2ccccc2S(=O)(=O)C(C)C)n1 [ASP3026] | 0.3923
Cc1nc2n(c(=O)c1CCN1CCC(c3noc4cc(F)ccc34)CC1)CCCC2 [Risperidone] | 0.3231
O=C(O)c1ccc(Nc2ncc3c(n2)-c2ccc(Cl)cc2C(c2c(F)cccc2F)=NC3)cc1 [MLN8054] | 0.2755
CC(C)NC(=O)C1CCC(n2c(NC(=O)c3ccc(F)cc3)nc3ccc(CN4CCC(C(C)(C)O)CC4)cc32)CC1 (stereo not drawn) [Belizatinib (TSR-011), Belizatinib] | 0.3121
CCC(C)(C)C(=O)O[C@H]1C[C@@H](C)C=C2C=C[C@H](C)[C@H](CC[C@@H]3C[C@@H](O)CC(=O)O3)[C@H]21 [Simvastatin] | 0.2588
NC(=O)c1ccc(N(C(N)=O)c2c(F)cccc2F)nc1-c1ccc(F)cc1F [VX-702] | 0.4353

Structure (SMILES) | ANGPTL3-LINEAR FOLD CHANGE
C[C@@H](Oc1cc(-n2cnc3ccc(CN4CCN(C)CC4)cc32)sc1C(N)=O)c1ccccc1C(F)(F)F [GSK461364] | 0.3078
CCNC(=O)Nc1ccc(-c2nc3c(c(N4CCOC[C@@H]4C)n2)CCN(C2COC2)C3)cc1 [GDC-0349] | 0.4506
N#Cc1ccc2[nH]c(O)c(-c3ccc(CN4CCOCC4)cn3)c2c1 [AZD1080] | 0.2238
CC(=O)c1ccc2c(c1)N(CCCN1CCC(CCO)CC1)c1ccccc1S2 [Piperacetazine] | 0.4033
Cc1c(OCC(F)(F)F)ccnc1C[S+]([O-])c1nc2ccccc2[nH]1 (stereo not drawn) [Lansoprazole] | 0.4763
COc1cc(C)c(/C=C/C(C)=C/C=C/C(C)=C/C(=O)O)c(C)c1C [Acitretin] | 0.4763
FC(F)(F)c1ccc(/C=C/c2nc(COc3ccc(CCCCn4ccnn4)cc3)co2)cc1 [Mubritinib (TAK 165), Mubritinib] | 0.3392
C=CC(=O)Nc1cccc(Oc2nc(Nc3ccc(N4CCN(C)CC4)cc3)nc3ccsc23)c1 [Olmutinib (HM61713, BI 1482694), Olmutinib] | 0.3057
C[C@@H](NCCCc1cccc(C(F)(F)F)c1)c1cccc2ccccc12 [Cinacalcet HCl] | 0.3789
COc1cc(N)c(Cl)cc1C(=O)NC1CCNCC1OC (stereo not drawn) [NORCISAPRIDE HYDROCHLORIDE] | 0.3763
CC(C)(O)CC(=O)NCCn1ccc2ncnc(Nc3ccc(Oc4cccc(C(F)(F)F)c4)c(Cl)c3)c21 [TAK-285] | 0.3842
CO[C@H]1C[C@@H]2CC[C@@H](C)[C@@](O)(O2)C(=O)C(=O)N2CCCC[C@H]2C(=O)O[C@H]([C@H](C)C[C@@H]2CC[C@@H](OCCO)[C@H](OC)C2)CC(=O)[C@H](C)/C=C(\C)[C@@H](O)[C@@H](OC)C(=O)[C@H](C)C[C@H](C)/C=C/C=C/C=C/1C [Everolimus (RAD001), Everolimus] | 0.483
Nc1ncn([C@@H]2O[C@H](CO)[C@@H](O)[C@H]2O)c(=O)n1 [Azacitidine] | 0.2316
CC[C@@H]1C(=O)N(C)c2cnc(Nc3ccc(C(=O)NC4CCN(C)CC4)cc3OC)nc2N1C1CCCC1 [BI 2536] | 0.2045
COCCCC/C(=N\OCCN)c1ccc(C(F)(F)F)cc1 [Fluvoxamine maleate] | 0.3231
CCC[C@@H]1CC2=CC(=O)CC[C@]2(C)[C@H]2CC[C@@]3(C)[C@@H](CC[C@@]3(O)CCC(=O)[O-])[C@H]12.[K+] [RU 28318] | 0.4005
Cl.Clc1cccc(N2CCNCC2)c1 [1(3-Chlorophenyl)piperazine HCl] | 0.4414
CCc1nc(-c2cccc(C)c2)c(-c2ccnc(NC(=O)c3ccccc3)c2)s1 [TAK-715] | 0.4538
[H]/N=C(\N/C(=N/[H])Nc1ccc(Cl)cc1)NC(C)C [Proguanil] | 0.3536
N=C(N)c1ccc(OCCCCCOc2ccc(C(=N)N)cc2)cc1 [Pentamidine isethionate] | 0.1321
CCN1CCN(Cc2ccc(-c3cc4c(N[C@H](C)c5ccccc5)ncnc4[nH]3)cc2)CC1 [AEE788 (NVP-AEE788)] | 0.1684
C/C=C1\NC(=O)[C@H]2CSSCC/C=C/[C@H](CC(=O)N[C@H](C(C)C)C(=O)N2)OC(=O)[C@H](C(C)C)NC1=O [Romidepsin (FK228, Depsipeptide), Romidepsin] | 0.1349
CC(C)(Sc1cc(C(C)(C)C)c(O)c(C(C)(C)C)c1)Sc1cc(C(C)(C)C)c(OC(=O)CCC(=O)O)c(C(C)(C)C)c1 [Succinobucol] | 0.3896
c1ccc2c(CCNc3ccc(Nc4ccncc4)cc3)c[nH]c2c1 [JNJ-26854165 (Serdemetan), Serdemetan] | 0.1817

Source: US20210161997A1, “TREATING DISEASES VIA TARGETED MODULATION OF GENE SIGNALING NETWORKS” (Camp4 Therapeutics Corporation, priority 2018, published 2021)
